Measurements as given in patent US20220008425A1, “Pharmaceutical Composition for Treating B-Cell Lymphoma” (FUNDAN UNIVERSITY SHANGHAI CANER CENTER, priority 2018, published 2022).
Where “and” joins values, the source holds several entries; their conditions need not be identical. Equal values may be shown once. Entries after “also recorded” stand apart in the source; their conditions may differ.

How the values were obtained:
[1] = test system: acute promyelocytic leukemia (APL); settings: APL patients; ATRA alone; cited from earlier work
LY8-RCHO cells [2] = settings: 48 hours
Description: (§1) Further, we constructed LY8 and NU-DUL-1 cells resistant to chemotherapeutic drugs. Briefly, LY8-ORI and NU-DUL-1-ORI cells were treated with doxorubicin (Selleck Chemicals, Houston, Tex.) and vincristine (Selleck Chemicals, Houston, Tex.) at a clinical ratio of 50:1.4 by increasing the concentration. […] These cells were then treated with 2 μg/mL of 4-hydroperoxycyclophosphamide (4-HC) (Santa Cruz Biotechnology, Inc., Santa Cruz, Calif.) every 21 days for 3 cycles. The obtained CHO-resistant cells are referred to as LY8-CHO and NU-DUL-1-CHO, respectively. CHO-resistant cells were treated with doxorubicin, vincristine, and 4-HC every 22 days to maintain drug tolerance to CHO. […] To maintain RCHO resistance, LY8-RCHO cells and NU-DUL-1-RCHO cells were treated with 32 μg/mL of rituximab containing 20% (v/v) of NHS every 22 days, followed by treatment with doxorubicin, vincristine, and 4-HC. After 48 hours of treatment with doxorubicin, vincristine and 4-HC, drug resistance to CHO and RCHO was determined by a series of CCK-8 assays.
(§2) Cells were seeded in a 96-well plate at a density of 1×10^4/100 μL/well. Cells were pretreated with IPI-145, abemaciclib, AZD4547, PF-573228, R788, or saracatinib at increasing concentrations with or without CHO for 48 hours prior to performing CytoTox-Glo™ cytotoxicity assay. We performed cytotoxicity assay by using a CytoTox-Glo™ cytotoxicity assay kit (Promega Inc., Madison, Wis.) according to their instructions. Briefly, 50 μL of CytoTox-Glo™ cytotoxicity assay reagent was added to all wells, mixed by orbital shaking, and then incubated for 15 minutes at room temperature. Luminescence of experimental dead cells was detected with a Synergy HT microplate reader (BioTek, Biotek Winooski, Minn.), wherein 50 μL of lysate was added to all wells, mixed and incubated for 15 minutes at room temperature prior to detection of total luminescence. Cytotoxicity was calculated according to the following formula: Cytotoxicity (%)=Experimental dead cell luminescence/Total luminescence×100%.

LY8-RCHO cells [3] = experiment: CDC assay (rituximab-mediated complement-dependent cytotoxicity); type: cell-based, human; settings: pre-treated with inhibitor 24 hours, then rituximab and 20% NHS 2 hours
Description: (§3) We constructed LY8 cells and NU-DUL-1 cells that are resistant to rituximab-mediated complement-dependent cytotoxicity (CDC). Briefly, original LY8 (LY8-ORI) cells and original NU-DUL-1 (NU-DUL-1-ORI) cells were treated with rituximab containing 20% (v/v) of NHS (Roche, Basel, Switzerland) with a concentration of gradually increasing from 4 μg/mL to 32 μg/mL to construct drug-resistant cells. […] Cytolysis induced by CDC was evaluated by detection of positive cells stained with propidium iodide (PI) through fluorescence activated cell sorting (FACS).

[4] = test system: AKT phosphorylation, SOX2, CDK6 and CSC-associated molecules in LY8-RCHO cells; experiment: Immunoblot analysis; type: cell-based, human
LY8-RCHO cells [5] = experiment: Aldefluor analysis (ALDH1+ cells); type: cell-based, human
Description: (§4) ALDH1 is a selectable marker for a variety of normal and cancer stem cells, including hematopoietic stem cells. Therefore, we assessed the number of cancer stem cells in hematopoietic malignancies by detecting ALDH1 positive cells. As previously described, we used an ALDEFLUOR™ kit (StemCell Technologies, Vancouver, BC, CA) to detect populations with high ALDH1 activity. Briefly, 1×10^6 cells were suspended in 1 mL of assay buffer containing 1 μM of BAAA, a substrate of […]. Suspended cells were then equally divided into two samples, one as a negative control and the other as a test sample. To form the negative control, […] of DEAB, a specific ALDH inhibitor, was added to one equally-divided sample. Cells were then incubated at 37° C. for 30 minutes prior to flow cytometry analysis.

LY8-RCHO cells [6] = experiment: EdU cell proliferation assay; type: cell-based, human; settings: 1 μM
Description: (§5) RCHO-resistant DLBCL cells were pretreated with duvelisib, abemaciclib, or AZD4547 at a concentration of 1 μM for 48 or 120 hours prior to EdU assay. For 120 hours of the study, the medium was replaced with a fresh medium containing 1 μM of inhibitor at 48 hours. EdU cell proliferation assay was performed by using a cell-light EdU Apollo643 in vitro flow cytometry kit (RiboBio Inc., Guangzhou, China) according to its instructions. Next, we assayed EdU staining positive cells on a Cytomics FC500 MPL flow cytometer (Beckman Coulter, Brea, Calif.).

LY8-RCHO-Luc cells = experiment: Transplantation model, bioluminescence tumor growth and survival; type: in vivo; settings: SCID mice bearing LY8-RCHO-Luc cells
Text: (§6) Construction of a transplantation model: we transduced LY8-RCHO cells and NU-DUL-1-RCHO cells with lentiviruses overexpressing the firefly luciferase gene to generate stable cells expressing firefly luciferase, referred to as LY8-RCHO-Luc cells and NU-DUL-1-RCHO-Luc cells, respectively. 8-week-old female SCID mice were purchased from SLAC (Shanghai laboratory animal center). The LY8-RCHO-Luc cells and NU-DUL-1-RCHO-Luc cells were resuspended in PBS prior to intraperitoneal injection of 1.5×10^7 cells per mouse. After intraperitoneal injection of the LY8-RCHO-Luc cells, mice were randomized into 6 groups (7 mice in every group) and given saline, R-CHOP, duvelisib, abemaciclib, R-CHOP+duvelisib, and R-CHOP+abemaciclib, respectively. Mice inoculated with the NU-DUL-1-RCHO-Luc cells were randomly divided into 6 groups (7 mice in every group), and were given saline, R-CHOP, duvelisib, AZD4547, R-CHOP+duvelisib, and R-CHOP+AZD4547, respectively. The drug dosing method based on one course of clinical use is shown in Table 1; the R-CHOP regimen was clinically used to treat DLBCL, while duvelisib, abemaciclib, and AZD4547 were tested in clinical trials (associated NCT numbers are NCT02576275, NCT01739309, and […], respectively). Tumor growth was monitored by bioluminescence at day 50 and day 90 after inoculation. For in vivo luminescence imaging, D-luciferin (Promega, Madison, Wis.) was intraperitoneally injected into mice (150 mg/kg). After 10 minutes, the mice were anesthetized by intraperitoneal injection of pentobarbital (50 mg/kg) and then their bioluminescence intensity was examined by using an In Vivo MS FX PRO system (Bruker Corporation, Billerica, Mass.). Luminescence images were captured with an exposure time of 30 seconds and the signal intensity of the tumor was measured by using Bruker MI software. The survival time of each mouse was recorded. Surviving mice were euthanized and dissected 120 days after inoculation and no intraperitoneal tumors were found. Tumor tissue was collected from moribund mice and fixed with 4% formalin. All animal experiments were performed in strict accordance with the experiment protocol approved by the animal ethics committee of Shanghai school of medicine of Fudan university.

NU-DUL-1-RCHO cells [7] = settings: 48 hours
Description: as §1, §2

NU-DUL-1-RCHO cells [8] = experiment: CDC assay (rituximab-mediated complement-dependent cytotoxicity); type: cell-based, human; settings: pre-treated with inhibitor 24 hours, then rituximab and 20% NHS 2 hours
Description: as §3

[9] = test system: AKT phosphorylation, SOX2, FGFR1/2 and CSC-associated molecules in NU-DUL-1-RCHO cells; experiment: Immunoblot analysis; type: cell-based, human
NU-DUL-1-RCHO cells [10] = experiment: Aldefluor analysis (ALDH1+ cells); type: cell-based, human
Description: as §4

NU-DUL-1-RCHO cells [11] = experiment: EdU cell proliferation assay; type: cell-based, human; settings: 1 μM, time point (48 or 120 hours) not given
Description: as §5

NU-DUL-1-RCHO-Luc cells = experiment: Transplantation model, bioluminescence tumor growth and survival; type: in vivo; settings: SCID mice bearing NU-DUL-1-RCHO-Luc cells
Text: as §6

[12] = test system: SOX2 in tumor tissues grown from NU-DUL-1-RCHO-Luc cells; experiment: SOX2 immunohistochemical staining of tumor tissues from the transplantation model; type: in vivo, SCID mice; settings: tumors from NU-DUL-1-RCHO-Luc cells; compared with saline control
Text: Construction of a transplantation model: we transduced LY8-RCHO cells and NU-DUL-1-RCHO cells with lentiviruses overexpressing the firefly luciferase gene to generate stable cells expressing firefly luciferase, referred to as LY8-RCHO-Luc cells and NU-DUL-1-RCHO-Luc cells, respectively. 8-week-old female SCID mice were purchased from SLAC (Shanghai laboratory animal center). The LY8-RCHO-Luc cells and NU-DUL-1-RCHO-Luc cells were resuspended in PBS prior to intraperitoneal injection of 1.5×10^7 cells per mouse. After intraperitoneal injection of the LY8-RCHO-Luc cells, mice were randomized into 6 groups (7 mice in every group) and given saline, R-CHOP, duvelisib, abemaciclib, R-CHOP+duvelisib, and R-CHOP+abemaciclib, respectively. Mice inoculated with the NU-DUL-1-RCHO-Luc cells were randomly divided into 6 groups (7 mice in every group), and were given saline, R-CHOP, duvelisib, AZD4547, R-CHOP+duvelisib, and R-CHOP+AZD4547, respectively. […] Tumor growth was monitored by bioluminescence at day 50 and day 90 after inoculation. For in vivo luminescence imaging, D-luciferin (Promega, Madison, Wis.) was intraperitoneally injected into mice (150 mg/kg). […] Luminescence images were captured with an exposure time of 30 seconds and the signal intensity of the tumor was measured by using Bruker MI software. The survival time of each mouse was recorded. […]
Tumor tissues from patients or animal models were fixed with 4% formalin, embedded in paraffin and sectioned. […] Immunoreactivity was then detected by using a GTVision III immunohistochemical detection kit (GK500705; Gene Tech Inc., Shanghai, China) according to its instructions. Quantitative scoring of immunostaining for SOX2, p-AKT, CDK6, FGFR1 and FGFR2 was performed on three independent sections under the microscope, according to the formula: score=3 (strong positive)×percentage+2 (medium positive)×percentage+1 (weak positive)×percentage+0 (negative)×percentage.

[13] = inhibitor alone at increasing concentrations
[14] = inhibitor at increasing concentrations with CHO
[15] = inhibitor combined with R-CHOP, dosing per Table 1
[16] = inhibitor combined with R-CHOP, experiment ended at day 120

## CC1=C(/C=C/C(C)=C/C=C/C(C)=C/C(=O)O)C(C)(C)CCC1 [ATRA, all-trans retinoic acid]
[1]
  complete remission rate: about 85%

## CCN1CCN(Cc2ccc(Nc3ncc(F)c(-c4cc(F)c5nc(C)n(C(C)C)c5c4)n3)nc2)CC1 [abemaciclib]
LY8-RCHO cells [2]; [13]
  cytotoxicity (induction of cell death), inhibitor used alone: negligible effect on induction of cell death; also recorded: only negligible cytotoxicity on drug-resistant cells
LY8-RCHO cells [2]; [14]
  reversal of resistance to CHO (cytotoxicity of CHO), inhibitor co-treated with CHO: restored sensitivity of RCHO-resistant cells to CHO; also recorded: significantly enhanced cytotoxicity of CHO
LY8-RCHO cells [3]
  effect on resistance to R-mediated CDC: failed to reverse resistance to R-mediated CDC
[4]
  levels of CSC-associated molecules (OCT4, NANOG, KLF4, c-MYC, CD34, CD133): had no effect on its levels but resulted in a reduction in C-MYC
LY8-RCHO cells [5]
  proportion of ALDH1+ cells (CSCs): had no effect on ALDH1+ subpopulations in LY8-RCHO cells
LY8-RCHO cells [6]; 48 hours
  cell proliferation (EdU incorporation): prevented growth of LY8-RCHO cells at both 48 hours and 120 hours
LY8-RCHO cells [6]; 120 hours
  cell proliferation (EdU incorporation): prevented growth of LY8-RCHO cells at both 48 hours and 120 hours
LY8-RCHO-Luc cells; inhibitor combined with R-CHOP, 7 mice per group
  day of death of the two mice that died: 62 days and 78 days
LY8-RCHO-Luc cells; [15]
  tumor growth (total photon flux): significantly inhibited tumor growth
LY8-RCHO-Luc cells; [16]
  survival: prolonged the survival rate compared with R-CHOP or an inhibitor alone
LY8-RCHO-Luc cells; regimen or inhibitor used alone, vs saline, dosing per Table 1
  survival: neither duvelisib nor abemaciclib alone inhibited tumor growth or prolonged the survival rate
LY8-RCHO-Luc cells; regimen or inhibitor used alone, vs saline, dosing per Table 1, day 50 and 90
  tumor growth (total photon flux): neither duvelisib nor abemaciclib alone inhibited tumor growth or prolonged the survival rate

## COc1cc(CCc2cc(NC(=O)c3ccc(N4C[C@@H](C)N[C@@H](C)C4)cc3)n[nH]2)cc(OC)c1 [AZD4547]
NU-DUL-1-RCHO cells [7]; [13]
  cytotoxicity (induction of cell death), inhibitor used alone: negligible effect on induction of cell death; also recorded: only negligible cytotoxicity on drug-resistant cells
NU-DUL-1-RCHO cells [7]; [14]
  reversal of resistance to CHO (cytotoxicity of CHO), inhibitor co-treated with CHO: restored sensitivity of RCHO-resistant cells to CHO; also recorded: significantly enhanced cytotoxicity of CHO
NU-DUL-1-RCHO cells [8]
  effect on resistance to R-mediated CDC: exacerbates resistance to R-mediated CDC
[9]
  levels of CSC-associated molecules (OCT4, NANOG, KLF4, c-MYC, CD34, CD133): also reduced their levels but to a greatly reduced extent compared with duvelisib
NU-DUL-1-RCHO cells [10]
  proportion of ALDH1+ cells (CSCs): significantly reduced ALDH1+ subpopulations in NU-DUL-1-RCHO cells, but to a greatly reduced extent compared with duvelisib
NU-DUL-1-RCHO cells [11]
  cell proliferation (EdU incorporation): promoted proliferation of NU-DUL-1-RCHO cells due to involvement in inhibition of PI3K/AKT signaling, but to a lesser extent than PI3K inhibition
NU-DUL-1-RCHO-Luc cells; [15]
  tumor growth (total photon flux): completely inhibit tumor growth
NU-DUL-1-RCHO-Luc cells; [16]
  survival time: prolong the survival time to the end of the experiment at day 120
NU-DUL-1-RCHO-Luc cells; regimen or inhibitor used alone, dosing per Table 1
  survival time: significantly prolonged the survival time
[12]
  SOX2 expression level in tumor tissue (IHC): significantly reduced the expression levels of SOX2 compared with a saline control
